Results taken from patent publication US20250008996A1, “Flavored Food and Beverage Products” (Firmenich SA, priority 2014, published 2025).

Tests used:
Format in all cases: in vivo
[1] = Sweetness intensity in 150 ppm Reb.A in water, four trained experts (Example 9)
Method: Example 9: Three samples were prepared and compared with 150 ppm Reb.A (PureCircle) in water; equisweet to 3.5% sucrose (in red, FIG. 9). The first sample comprised 150 ppm Reb.A with 10 ppm Naringenin. The second sample was a 150 ppm Reb.A with 25 ppm Naringenin. The third sample comprised 150 ppm Reb.A with 50 ppm Naringenin. All samples were tested for sweetness intensity at room Temperature by four experts especially trained to evaluate sweet products.

[2] = Sweetness intensity in sucrose solution, thirty participants (Example 2); settings: 125 ppm Naringenin in 5% sucrose solution in water
Method: Example 2. Two samples were prepared. The first sample was a 6% sucrose solution in water. The second sample was a 5% sucrose solution in water with 125 ppm Naringenin. The samples were tested for sweetness intensity by thirty participants.

[3] = Tasting of Naringenin alone and combined with sweeteners (summary statements); settings: combined with other sweeteners, some embodiments
Method: However, when combined with others sweeteners, Naringenin provides sweetness enhancement to composition comprising a sweetener. In some embodiments, Naringenin provides a sweetness equivalent to 1-2° brix of sucrose equivalents.

[4] = Sweetness intensity in 300 ppm Reb.A in water, four trained experts (Example 10)
Method: Example 10: Six samples were prepared and compared with 300 ppm Reb.A in water; 100% sweetness level (in red, FIG. 10). The first sample comprised 300 ppm Reb. A with 10 ppm Naringenin. The second sample was a 300 ppm Reb.A with 25 ppm Naringenin. The third sample was a 300 ppm Reb.A with 50 ppm Naringenin. The fourth sample comprised 300 ppm Reb.A with 75 ppm Naringenin. The fifth sample was a 300 ppm Reb.A with 100 ppm Naringenin. The sixth sample was a 300 ppm Reb.A with 150 ppm Naringenin. All samples were tested for sweetness intensity at room Temperature by four experts especially trained to evaluate sweet products. […] On the other hand, the addition of 100 and 150 ppm Naringenin to 300 ppm Reb.A solution has a small loss of sweetness (8%).

Compound | sweetness intensity reached, as sucrose level ([1]; 50 ppm Naringenin in 150 ppm Reb.A solution, room temperature) [% sucrose] | sweetness level reached, as sucrose solution without Naringenin [2] [% sucrose] | sweetness provided, sucrose equivalents [3] | equisweet Reb.A level in water ([4]; 10 to 75 ppm Naringenin in 300 ppm Reb.A solution) [ppm Reb.A] | sweetness enhancement effect ([4]; 10 to 75 ppm Naringenin in 300 ppm Reb.A solution, 300 ppm Reb.A = 100%) [%] | loss of sweetness ([4]; 100 and 150 ppm Naringenin in 300 ppm Reb.A solution, 300 ppm Reb.A = 100%) [%] | equisweet sucrose level ([1]; 150 ppm Reb.A in water without Naringenin) [% sucrose]
O=C1C[C@@H](c2ccc(O)cc2)Oc2cc(O)cc(O)c21 [Naringenin, 2,3-Dihydro-5,7-dihydroxy-2(-4-hydroxyphenyl)-4H-1-bcmzopyran-4-one] | 4 | ~6 | 1-2 ° brix of sucrose equivalents | 350 | 17 | 8 | –
C=C1C[C@@]23CC[C@H]4[C@@](C)(CCC[C@@]4(C)C(=O)O[C@@H]4O[C@H](CO)[C@@H](O)[C@H](O)[C@H]4O)[C@@H]2CC[C@]1(O[C@@H]1O[C@H](CO)[C@@H](O)[C@H](O[C@@H]2O[C@H](CO)[C@@H](O)[C@H](O)[C@H]2O)[C@H]1O[C@@H]1O[C@H](CO)[C@@H](O)[C@H](O)[C@H]1O)C3 [Reb.A, rebaudioside A, reference compound] | – | – | – | – | – | – | 3.5
